In patent US4001428A, “Cyclopropane derivatives and use thereof as cell membrane mobility agents” (Polymer Sciences Corporation, priority 1974, dated 1977):

How the values were obtained:
[1] = tested on: rabbit lymphocytes; experiment: Cap formation on lymphocytes treated with fluorescent antibody (membrane mobility); assay type: cell-based
Procedure: Cap formation was followed on rabbit lymphocytes preincubated for various periods of time with one of the compounds, then treated with fluorescent antibody. At least 20 minutes preincubation with the aqueous dispersion of agent A2 C were required to produce a change in the observed rate from that of the control and between 1 and 2 h incubation was required for maximum response. A 1-h period was utilized in most experiments.
FIG. 2 illustrates the rate of cap formation in lymphocytes treated with A2 C. In each of these experiments rabbit blood was anticoagulated with heparin (200 I.U./cm^3) and diluted with NaCl-phosphate buffer, pH 7.3 (137 mM NaCl-1.8 mM KH2 PO4 -8.2 mM Na2 HPO4) to 40% of original volume. Diluted blood was layered over sodium metrizoate (Nyegaard, Oslo, Norway)-Ficoll (Pharmacia, Uppsala, Sweden) mixture (containing 6.3% Ficoll and 10% sodium metrizoate), and centrifuged for 30 min. at 400 g at 25° C. Cells collected from the interphase contained over 80% lymphocytes. Cells were centrifuged, washed 3 times in buffer containing albumin and resuspended in the same or A2 C buffer. (A2 C was suspended in buffer (with Vortex) and albumin added). Final concentrations: lymphocytes 10^7 cells/cm^3.A2 C 0.02-0.2 μl/cm^3, 0.2% albumin, 5 mM glucose. Usual sample volume: 0.2 cm^3. The cell suspension was incubated at 22° or 24° C for 60 min. […] Expt I: 0.1 1 A 2 C per cm^3; (log concn -3.7); temp. 22 C. Expt II: 0.02 and 0.2 A2 C per cm^3; temp. 24° C. Expt III: 0.2 A2 C per cm^3; temp. 24° C.

[2] = tested on: glutathione; settings: within cells; cited from earlier work
[3] = tested on: lymphocytes; experiment: Viability/cytotoxicity of lymphocytes, dye-exclusion test with trypan blue; assay type: cell-based; settings: 60 minutes incubation, FIG. 1
Procedure: The viability of the cells thus incubated was evaluated by the dye-exclusion test, using trypan blue.

[4] = Retained activity of sonicated suspension; assay type: physicochemical; settings: dispersed in 150 mM NaCl by sonication, ca. 2 min
Procedure: (§1) Blood from the brachial vein of adult hens was mixed with heparin (as anticoagulant), centrifuged and the buffy coat removed. The erythrocytes were washed twice with 150 mM NaCl and once with buffer containing 76 mM sodium acetate, 70 mM NaCl, 1 mM CaCl2 and 100 mg/cc Dextran (MW 70,000) Pharmacia, Uppsala, Sweden (pH 5.7). The buffer is similar to but simpler than that used in a similar procedure by Lucy et al. The cells were resuspended in the same buffer and mixed with an equal volume of a suspension of the mobility agent A2 C dispersed in 150 mM NaCl by sonication. […] The final concentrations of A2 C used ranged between 0.06μl to 0.5 μl/cc containing 2-3 × 10^8 cells, 0.5 mM CaCl2, 38 mM sodium acetate, 110 mM NaCl and dextran (50 mg/cc). Cell suspensions were incubated at the desired temperature, mixed gently every 5 - 15 minutes and aliquots removed at intervals for viewing and photography at room temperature.

[5] = tested on: neurotransmitter release; experiment: Neurotransmitter release from cells; assay type: cell-based
Description: Many intracellular agents are released from cells at rates which are below that desirable for optimum bilogical activity. […] For example, the use of the membrane mobility agents of the invention on brain tissue would lead to more efficient response to pharmacologically-active compounds and stimuli (such as electrical stimuli) on such brain tissue.

[6] = tested on: mastocytoma; experiment: Agglutination of mastocytoma cells by wheat germ agglutinin and cap formation; assay type: cell-based
Description: Some malignant cells, like mastocytoma, agglutinate in the presence of wheat germ agglutinin.

[7] = tested on: hen red blood cells; experiment: Fusion of hen red blood cells; assay type: cell-based; settings: 0.125 to 0.5 μl/cc of cell suspension, 37° C
Procedure: as §1

CCCCCCCCC1CC1CCCCCCCCOCCOCCOC (stereo not shown) [A2 CE, 2-(2-methoxy)-ethoxyethyl 8-(2-n-octylcyclopropyl)-n-octyl ether]
effect on cap formation / effectiveness as membrane mobility agent ([1]; standard incubation period, FIGS. 3 and 4): less than the ester A1 C in effect

CN1CCN(C(=O)N=NC(=O)N2CCN(C)CC2)CC1 [DIP, diazene dicarboxylic acid bis(N'-methylpiperazide)]
oxidation of intracellular glutathione [2]: oxidizes the glutathione within cells to glutathione disulfide

CCCCCCCCC1CC1CCCCCCCC(=O)OCCOCCOCCOC (stereo not shown) [A3 C, 2-[2-(2-methoxy)-ethoxy]ethoxyethyl 8-(2-n-octycyclopropyl)-octanoate]
cytotoxicity on lymphocytes relative to concentration affecting mobility [3]: toxicity with amounts close to that at which an effect on mobility was seen

CCCCCCCCCCCCCCCCCC(=O)OCCOCCOC [A2 S, 2-(2-methoxy)-ethoxyethyl octadecanoate, reference compound]
membrane mobility activity (active/inactive) ([1]; classification of compounds of Table I): inactive

CCCCCCCCC1CC1CCCCCCCC(=O)OCCOCCOC (stereo not shown) [A2 C, 2-(2-methoxy)-ethoxyethyl 8-(2-n-octylcyclopropyl octanoate]
rate of cap formation in treated cells, increase over controls ([1]; 0.02-0.2 μl/cm^3, 60 min incubation at 22° or 24° C, FIG. 2): ≤ 50% | effect of inherent "high" or "low" capacity for cap formation on the effects of the agent ([1]; FIG. 2): does not alter the effects produced by the mobility agent | initial state of treated cells, extrapolation to zero cap formation time ([1]; FIG. 2): might be initially more "prepared" to form caps than the control cells | preincubation time required to produce a change in the observed rate of cap formation from that of control ([1]; aqueous dispersion of agent, rabbit lymphocytes): At least 20 minutes | activity of sonicated suspension over time [4]: remains active for several hours | neurotransmitter release [5]: augmented by a small factor | cap formation on mastocytoma cells [6]: cause caps to form | extent of agglutination ([6]; wheat germ agglutinin): diminish the extent of agglutination | extent of erythrocytes eventually involved in fusion [7]: most of the erythrocytes | fusion of erythrocytes, degree of fusion [7]: increasing degrees of fusion, starting with binucleated, trinucleated and tetranucleated cells and proceeding to multi-nucleated cells | rounding and swelling of the cells [7]: rounding and swelling of the cells | cytotoxicity on lymphocytes relative to concentration affecting mobility [3]: toxic at concentrations considerably above that at which maximum effect on mobility was observed
